Measurements published in patent US7696174B2, “Short bio-active peptides for cellular and immunological modulation” (Helix Biomedix, Inc., priority 2007, dated 2010).
“Also recorded” adds a separate entry of the source.

Experiments:
[1] = test system: PAM 212 murine epidermal keratinocyte; experiment: Cell proliferation assay, PAM 212 murine epidermal keratinocytes; format: cell-based; conditions: control = cells treated with PBS only
Description: To examine this question, an overlapping set of peptide fragments of HB-107 was generated using standard solid phase peptide chemistry. These peptides were then assayed for cell proliferation activity at concentrations of 0.22, 2.15, 21.5 and 46.4 μg/mL.
The cell proliferation assays proceeded from the following experimental protocol:
Cell Proliferation Assay Using a Mouse Keratinocyte Cell Line.
OBJECTIVE: To determine the anti-proliferative or cytotoxic potential of a test article when applied to epidermal keratinocytes in culture.
TEST SYSTEM: Either the murine keratinocyte cell line PAM212 or primary Normal Human Epidermal Keratinocytes (NHEK, from Clonetics) are preferred models, although other cells may be used.
Keratinocytes are examined microscopically daily. As the culture becomes 50-75% confluent, the media in the plate is aspirated and 0.25% trypsin/EDTA is added (0.05% trypsin for human cells). When the cells become rounded, the trypsin is neutralized by addition of an equal volume of DMEM or KBM supplemented with approximately 10% bovine serum or by using trypsin neutralizing solution (TNS, from Clonetics). Cells are then centrifuged and the pellet is resuspended in 1 ml of DMEM-1 or KBM. A hemacytometer is used to count the cell suspension and the total number of cells/mL is adjusted to 1.5-2.5×10^4 cells/mL with DMEM-1 or KBM. Cells are then plated in 96-well plates at a concentration of 3.0-5.0×10^3 cells/well by adding 200 μL of the cell suspension to each well. Typically, the central 60 wells are used and the outer wells are filled with DMEM or PBS to minimize evaporation effects.
A stock solution of the test article is prepared using DMEM-1 or KBM, and all other dilutions are henceforth prepared from this solution. Typically, each dilution is filtered through an 0.2-μm filter before application to the cell culture. A 1.0% (w/v or v/v) solution or suspension is prepared, and 10-fold or 3-fold serial dilutions are made in culture medium.
The cells are examined 18-24 hours after plating to ensure cell attachment and division, and then 100 μL of the media is aspirated, leaving behind 100 μL in each well. Then 100 μL of a 2× concentration of each test article dilution is added to the replicate wells. For the negative control, 100 μL of the vehicle media (DMEM-1 or KBM) is added to the control wells. The microplate is then incubated at 37 degrees C. and 5.0% CO2 for 48-72 hours after dosing, and cells are allowed to proliferate undisturbed. Following this 48-72 hour exposure, all media is aspirated and proliferation is assessed by one of the below methods.
Option A: neutral red uptake. After exposure and aspiration of media, 200 μL of neutral red media is immediately added to each well. The microplate is returned to the incubator for an additional three hours. Following this dye uptake period, the microplate is removed from the incubator and gently inverted, and the neutral red media is decanted into a collection pan. The cells are then fixed with fixing solution for approximately one minute. The fixing solution is decanted off, and the microplate is washed gently three times with washing solution. The washing solution is decanted, and 200 μL of lysing solution is added. After at least 15 minutes, the contents of each well are re-pipetted to ensure even color distribution in each well, and an aliquot is read on the spectrophotometer as detailed below.
Option B: MTT conversion assay. After exposure and aspiration of media, 200 μL of MTT assay media is immediately added to each well. […] The microplate is returned to the incubator for an additional three hours. Following this dye uptake period, the microplate is removed from the incubator and gently inverted, and the MTT media is decanted into a collection pan. The cells are then washed gently three times with washing solution. The washing solution is decanted, and 200 μL of lysing solution is added. […]

[2] = test system: human epidermal keratinocyte; experiment: Keratinocyte cell migration assay (tissue culture scratch test); format: cell-based
Source text: Cell proliferation alone is not sufficient to aid in wound healing. Upon sustaining an injury, cells bordering the wound proliferate; the migration of such newly formed cells to close the injury (or chronic lesion of older, dysfunctional tissue) is of equal importance. To address this issue, HB-107 and peptide fragments thereof were examined using a keratinocyte cell migration assay based on a simple tissue culture scratch test. […] The protocol for this assay is standard and has been described by Shanley et al. (2004, Invest. Ophthalmol. Vis. Sci. 45:1088-1094), the article of which is herein incorporated by reference in its entirety.

[3] = test system: IL6 expression in epithelial cells; experiment: Repression of IL6 expression in resting epithelial cells; format: cell-based; conditions: for % Change in IL6 expression / Change in IL6 versus PBS control: 20 μg/mL peptide
Source text: The protocol for this assay is standard and described by Murakami et al. (2004, J. Immunol. 172:[…]), the article of which is incorporated herein by reference in its entirety.

[4] = test system: UVB-induced IL6 expression in human skin epithelial cells (ATCC CRL-2592); experiment: UVB-induced IL6 expression in skin epithelial cells (ELISA); format: cell-based; conditions: UVB 35 seconds, then 40 μg/mL peptide for twenty hours; UV only 0.7305, control 0.0730
Description: FIG. 3: Effect of short peptides on UVB-induced IL6 expression in skin epithelial cells. Cells were exposed to UVB irradiation for 35 seconds, after which cells were incubated in complete medium (no serum) with 40 μg/mL peptide [HB-107 (SEQ ID NO:1), HB-802 (SEQ ID NO:12), HB-1410 (SEQ ID NO:15), HB-801 (SEQ ID NO:31)] for twenty hours. IL6 expression was then measured by ELISA. Refer to Example 4.
An assay was performed to determine whether peptide fragments of HB-107 can induce anti-inflammatory activity in cells exposed to ultraviolet light. Human skin epithelial cells (ATCC CRL-2592) were seeded into 6-well plates and grown to more than 95% confluence in DMEM with 4 mM L-glutamine adjusted to contain 1.5 g/L sodium bicarbonate and 4.5 g/L glucose (complete medium) supplemented with 10% fetal bovine serum. The cells were serum starved for 5 hours prior to UVB treatment. UVB was generated using a UVLMS lamp (4W model, 3UV assembly, Upland, Calif.) with the irradiation wavelength set at 302 nm. The UV lamp was placed 12 cm above the tissue culture plate (6-well plate) and two wells were treated at one time to allow homogenous UVB irradiation. Cells were exposed to UVB irradiation (450 μW/cm^2, measured using a radiometer) in PBS to avoid ultraviolet light-induced generation of toxic photochemicals. IL6 expression was measured as an indicator of cell inflammatory activity in response to UVB.
Individual peptides were screened to determine the effects thereof on UVB-induced IL6 expression in skin epithelial cells. Cells were exposed to UVB (450 μW/cm^2) for 35 seconds in PBS, after which the PBS was replaced with complete medium without serum in the presence or absence of 40 μg/ml peptide and incubated at 37 degrees C./5% CO2 for twenty hours. The supernatant media was then collected and centrifuged at 10,000 rpm to remove debris, prior to ELISA for human IL6 (CellSciences, Mass.).

[5] = compared with cecropin B; cited from earlier work
[6] = Lee et al., 2004; cited from earlier work
[7] = 24 hr after addition of 20 μg/mL peptide
[8] = 48 hr after addition of 20 μg/mL peptide

## MPKEKVFLKIEKMGRNIRN (listed as Hyalophora cecropia) [HB-107, parent peptide, a fragment of cecropin B, an antimicrobial protein present in a species of moth, reference compound]
[1]; 0.22 μg/mL peptide
  cell proliferation as a percent of control cell proliferation: 57%
[1]; 2.15 μg/mL peptide
  cell proliferation as a percent of control cell proliferation: 75%
[1]; 21.5 μg/mL peptide
  cell proliferation as a percent of control cell proliferation: 121%
[1]; 46.4 μg/mL peptide
  cell proliferation as a percent of control cell proliferation: 126%
[2]; 6 hr exposure to peptide
  percent closure of the scratch compared to initial width: 52%
[2]; 10 hr exposure to peptide
  percent closure of the scratch compared to initial width: 78%
[3]; [7]
  amount of IL6, Average: 286.065 pg/mL
  amount of IL6, Well 1: 307.58 pg/mL
  amount of IL6, Well 2: 264.55 pg/mL
[3]; 24 hr
  % Change in IL6 expression: −11.60%
  Change in IL6 versus PBS control: −37.435
[3]; [8]
  amount of IL6, Average: 738.35 pg/mL
  amount of IL6, Well 1: 690.58 pg/mL
  amount of IL6, Well 2: 786.12 pg/mL
[3]; 48 hr
  % Change in IL6 expression: −24.30%
  Change in IL6 versus PBS control: −236.685
[4]
  IL6 (OD 450): 0.7315 OD 450
[5]
  bacteriostatic effects (in words): does not display the bacteriostatic effects
[6]
  wound healing in vivo (in words): does display epidermal wound healing qualities; also recorded: stimulate wound healing in vivo
